Data from patent US10513534B2, “2′-chloro nucleoside analogs for HCV infection” (priority 2012, dated 2019).
Read-outs that look alike come from different tables or passages of the source.

What was measured:
HCV genotype 1b replicon = assay: HCV replicon assay (Zluc luciferase); format: cell-based
Experimental: Huh-7-derived cell line (Zluc) that harbors an HCV genotype 1b replicon and a luciferase reporter gene was grown in Dulbecco's Modified Eagle Medium (DMEM) supplemented with 10% fetal bovine serum, 2 mM GlutaMAX, 1% MEM nonessential amino acids, 100 IU/mL penicillin, 100 μg/mL streptomycin, and 0.5 mg/mL Geneticin® (G418). For dose response testing the cells were seeded in 96-well plates at 7.5×10^3 cells per well in a volume of 50 μL, and incubated at 37° C./5% CO2. Drug solutions were made up freshly in Huh-7 media as 2× stocks. Ten additional 5-fold dilutions were prepared from these stocks in DMEM without G418. At least three hours after Zluc cells were seeded, drug treatment was initiated by adding 50 μL of drug dilutions to the plates in duplicate. Final concentrations of drug ranged from 100 μM to […]. Cells were then incubated at 37° C./5% CO2. Alternatively, compounds were tested at two concentrations (1 μM and 10 μM). […] For this, media was removed from the plates via gentle tapping. Fifty microliters of ONE-glo luciferase assay reagent was added to each well. The plates were shaken gently for 3 min at room temperature and luminescence was measured on a Victor^3 V 1420 multilabel counter (Perkin Elmer) with a 1 second read time using a 700 nm cut-off filter. The EC50 values were calculated from dose response curves from the resulting best-fit equations determined by Microsoft Excel and XLfit 4.1 software. When screening at two fixed concentrations, the results were expressed as % inhibition at 1 μM and 10 μM.

Zluc cells = assay: Cytotoxicity evaluation, CellTiter-Blue Cell Viability Assay; conditions: Zluc cells, CellTiter-Blue
[1] = Liver triphosphate pharmacokinetics after single oral dose in CD-1 mice; format: in vivo; set-up: key: + ≤ 15; 15 < ++ ≤ 50; 50 < +++ ≤ 100; 100 < ++++; BLQ = below limit of quantitation; conditions: single oral dose 10 mg/kg in PEG 200;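 on Ms Liver TP AUC: pmol·h/g liver normalized to a 1 µmol/kg dose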;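 on Ms Liver TP Cmax: pmol/g liver normalized to a 1 µmol/kg dose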
Experimental: Internal standard solution was added to the homogenate followed by neutralization with 20% ammonium hydroxide solution and addition of 500 μL 1% formic acid. The tissue samples were extracted by weak anion exchange solid phase extraction (SPE). Post extraction, the eluates were evaporated under nitrogen, followed by reconstitution before injection onto the LC-MS/MS system.

[2] = Plasma nucleoside pharmacokinetics after single oral dose in CD-1 mice; format: in vivo; conditions: single oral dose 10 mg/kg in PEG 200;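 on Ms Plasma nucleoside AUC: pmol·h/mL plasma normalized to a 1 µmol/kg dose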
Experimental: Plasma samples were analyzed for nucleoside by LC-MS/MS. The internal standard (IS) was either 2′-MeG-D3 or tiapride. For protein precipitation and extraction, each plasma sample (50 μL) was treated with 500 μL of 0.2% formic acid in acetonitrile and 20 μL of the internal standard working solution. After vortexing and centrifugation, 500 μL of the sample extracts were transferred to a new plate, dried under N2 at ˜28° C. and reconstituted with 75 μL of 0.2% FA in water. The extracts were chromatographed on an Aquasil C18 column using a gradient system of 0.2% formic acid in water and acetonitrile. The analytes were detected and quantified by tandem mass spectrometry in positive ion mode on an MDS Sciex API5000 equipped with a Turbo Ionspray® interface. The calibration range was 0.500 (LLOQ) to 200 ng/mL in mouse plasma.

[3] = Zluc cells, 72 hours; read-out: HCV Replicon EC50

Row | Compound | EC50 (HCV genotype 1b replicon; [3]) [µM] | CC50 (Zluc cells) [µM] | Ms Liver TP AUC [1] | Ms Liver TP Cmax [1] | Ms Plasma nucleoside AUC [2] | Ms Plasma nucleoside Cmax [2] | EC50 (HCV genotype 1b replicon; read-out: HCV Replicon EC50; Zluc cells, 72 hours) [µM]
1 | CC(C)OC(=O)C(C)NP(=O)(OCC1OC(n2cnc3c(=O)[nH]c(N)nc32)C(C)(Cl)C1O)Oc1ccccc1 (mixture of isomers) [Compound 21ii Mixture of P-Diastereoisomers] | > 10 | > 50 |  |  |  |  | 
2 | CCOc1nc(N)nc2c1ncn2[C@@H]1O[C@H](COP(=O)(N[C@@H](C)C(=O)OC(C)C)Oc2ccccc2)[C@@H](O)[C@@]1(C)Cl (single isomer, unassigned) [Compound 17ii Diastereomer 2] | 1 to 10 | > 50 | BLQ | BLQ |  |  | 
3 | CC(C)OC(=O)[C@H](C)NP(=O)(OC[C@H]1O[C@@H](n2cnc3c(=O)[nH]c(N)nc32)[C@](C)(Cl)[C@@H]1O)Oc1ccccc1 (single isomer, unassigned) [Compound 21ii Diastereomer 2] | > 10 | > 50 |  |  |  |  | 
4 | CC(C)(CO)C(=O)SCCOP(=O)(NCc1ccccc1)OC[C@H]1O[C@@H](n2ccc(=O)[nH]c2=O)[C@](C)(Cl)[C@@H]1O (single isomer, unassigned) [Compound 54 Diastereomer 1] |  |  | + (+ ≤ 150) | ++ (15 < ++ ≤ 50) | +++ (500 < +++ ≤ 1500) | +++ (50 < +++ ≤ 100) | 
5 | CC(C)(CO)C(=O)SCCOP(=O)(NCc1ccccc1)OC[C@H]1O[C@@H](n2ccc(=O)[nH]c2=O)[C@](C)(Cl)[C@@H]1O (single isomer, unassigned) [Compound 54 Single Diastereoisomer] | 1 to 10 | > 50 |  |  |  |  | 
6 | CCOC(=O)COP(=O)(OC[C@H]1O[C@@H](n2ccc(=O)[nH]c2=O)[C@](C)(Cl)[C@@H]1O)Oc1ccccc1 (single isomer, unassigned) [Compound 72 Diastereomer 2] |  |  |  |  |  |  | > 10
7 | CC(C)OC(=O)[C@H](C)NP(=O)(OC[C@H]1O[C@@H](n2cc(F)c3c(N)ncnc32)[C@](C)(Cl)[C@@H]1O)Oc1ccccc1 (single isomer, unassigned) [Compound 207ii Diastereomer 2] | > 10 | > 50 |  |  |  |  | 
8 | CC(C)OC(=O)[C@H](C)NP1(=O)OC[C@H]2O[C@@H](n3cnc4c(N)ncnc43)[C@](C)(Cl)[C@@H]2O1 (single isomer, unassigned; diastereoisomer 1) [Compound 77ii Diastereoisomer 1] | 1 to 10 | > 50 |  |  |  |  | 
9 | CC(COC(=O)C(C)C)NP1(=O)OCC2OC(n3cnc4c(N)ncnc43)C(C)(Cl)C2O1 (single isomer, unassigned; diastereoisomer 1) [Compound 95 Diastereoisomer 1] | 0.25 to 1 | > 50 |  |  |  |  | 
10 | CC(C)OC(=O)[C@H](C)NP1(=O)OC[C@H]2O[C@@H](n3cnc4c(N)ncnc43)[C@](C)(Cl)[C@@H]2O1 (single isomer, unassigned; diastereoisomer 2) [Compound 77ii Diastereoisomer 2] | 0.25 to 1 | > 50 |  |  |  |  | 
11 | CC(COC(=O)C(C)C)NP1(=O)OCC2OC(n3cnc4c(N)ncnc43)C(C)(Cl)C2O1 (single isomer, unassigned; diastereoisomer 2) [Compound 95 Diastereoisomer 2] | 0.25 to 1 | > 50 |  |  |  |  | 
12 | CC(C)OC(=O)[C@H](C)NP1(=O)OC[C@H]2O[C@@H](n3ccc(=O)[nH]c3=O)[C@](C)(Cl)[C@@H]2O1 (single isomer, unassigned; diastereomer 1) [Compound 38ii Diastereomer 1] |  |  | + (+ ≤ 150) | + (+ ≤ 15) | +++ (500 < +++ ≤ 1500) | +++ (50 < +++ ≤ 100) | 
13 | CC(C)OC(=O)[C@H](C)NP(=O)(OCCSC(=O)C(C)(C)C)OC[C@H]1O[C@@H](n2ccc(=O)[nH]c2=O)[C@](C)(Cl)[C@@H]1O (single isomer, unassigned; diastereomer 1) [Compound 43ii Diastereomer 1] | 0.25 to 1 | > 50 |  |  |  |  | 
14 | CC(C)OC(=O)[C@H](C)NP1(=O)OC[C@H]2O[C@@H](n3cnc4c(N)ncnc43)[C@](C)(Cl)[C@@H]2O1 (single isomer, unassigned; diastereomer 1) [Compound 77ii Diastereomer 1] |  |  | ++++ (1500 < ++++) | ++++ (100 < ++++) | + (+ ≤ 150) | + (+ ≤ 15) | 
15 | CC(C)C(=O)OC[C@H](C)NP1(=O)OC[C@H]2O[C@@H](n3cnc4c(N)ncnc43)[C@](C)(Cl)[C@@H]2O1 (single isomer, unassigned; diastereomer 1) [Compound 95i Diastereomer 1] |  |  | + (+ ≤ 150) | + (+ ≤ 15) | + (+ ≤ 150) | + (+ ≤ 15) | 
16 | CC(C)OC(=O)[C@@H](C)NP(=O)(OC[C@H]1O[C@@H](n2ccc(=O)[nH]c2=O)[C@](C)(Cl)[C@@H]1O)SC1CCCC1 (single isomer, unassigned; diastereomer 1) [Compound 206i Diastereomer 1] |  |  | +++ (500 < +++ ≤ 1500) | ++++ (100 < ++++) | +++ (500 < +++ ≤ 1500) | +++ (50 < +++ ≤ 100) | 
17 | CC(C)OC(=O)[C@H](C)NP1(=O)OC[C@H]2O[C@@H](n3ccc(=O)[nH]c3=O)[C@](C)(Cl)[C@@H]2O1 (single isomer, unassigned; diastereomer 2) [Compound 38ii Diastereomer 2] |  |  | +++ (500 < +++ ≤ 1500) | ++ (15 < ++ ≤ 50) | +++ (500 < +++ ≤ 1500) | ++++ (100 < ++++) | 
18 | CC(C)(CO)C(=O)SCCOP(=O)(NCc1ccccc1)OC[C@H]1O[C@@H](n2ccc(=O)[nH]c2=O)[C@](C)(Cl)[C@@H]1O (single isomer, unassigned; diastereomer 2) [Compound 54 Diastereomer 2] |  |  | + (+ ≤ 150) | + (+ ≤ 15) | +++ (500 < +++ ≤ 1500) | ++ (15 < ++ ≤ 50) | 
19 | CC(C)OC(=O)[C@H](C)NP1(=O)OC[C@H]2O[C@@H](n3cnc4c(N)ncnc43)[C@](C)(Cl)[C@@H]2O1 (single isomer, unassigned; diastereomer 2) [Compound 77ii Diastereomer 2] |  |  | ++++ (1500 < ++++) | ++++ (100 < ++++) | + (+ ≤ 150) | + (+ ≤ 15) | 
20 | CC(C)C(=O)OC[C@H](C)NP1(=O)OC[C@H]2O[C@@H](n3cnc4c(N)ncnc43)[C@](C)(Cl)[C@@H]2O1 (single isomer, unassigned; diastereomer 2) [Compound 95i Diastereomer 2] |  |  | ++ (150 < ++ ≤ 500) | + (+ ≤ 15) | + (+ ≤ 150) | + (+ ≤ 15) | 
21 | CC(C)OC(=O)[C@@H](C)NP(=O)(OC[C@H]1O[C@@H](n2ccc(=O)[nH]c2=O)[C@](C)(Cl)[C@@H]1O)SC1CCCC1 (single isomer, unassigned; diastereomer 2) [Compound 206i Diastereomer 2] |  |  | +++ (500 < +++ ≤ 1500) | +++ (50 < +++ ≤ 100) | +++ (500 < +++ ≤ 1500) | +++ (50 < +++ ≤ 100) | 
